# Assay results as given in PubChem BioAssay (NCI).
#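 These data come from cells grown in 96-well plates and exposed to compound for 48 hours at five concentrations. TGI: concentration producing complete growth inhibition.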
# Tests used:
# Assay in all cases: DTP human tumour cell line panel, 48 h
# [1] = test system: SW-620 colon
# [2] = test system: NCI-H226 lung
# [3] = test system: NCI-H522 lung
# [4] = test system: UACC-257 melanoma
# [5] = test system: MCF7 breast
# [6] = test system: K-562 leukemia
# [7] = test system: SNB-19 CNS
# [8] = test system: PC-3 prostate
# [9] = test system: SK-MEL-2 melanoma
# [10] = test system: SF-268 CNS
# [11] = test system: COLO 205 colon
# [12] = test system: MDA-MB-231 breast
# [13] = test system: MOLT-4 leukemia
# [14] = test system: HCT-116 colon
# [15] = test system: RXF 393 renal
# [16] = test system: U251 CNS
# [17] = test system: KM12 colon
# [18] = test system: MDA-N
# [19] = test system: HOP-92 NSCLC
# [20] = test system: A498 renal
Structure (SMILES),TGI [1],TGI [2],TGI [3],TGI [4],TGI [5],TGI [6],TGI [7],TGI [8],TGI [9],TGI [10],TGI [11],TGI [12],TGI [13],TGI [14],TGI [15],TGI [16],TGI [17],TGI [18],TGI [19],TGI [20]
COC(=O)c1ccc(C)cc1CC1Cc2cccc(C)c2C1=O (stereo unspecified),> 100 µM,9.66 µM,6.57 µM,47.9 µM,7.38 µM,9.79 µM,> 100 µM,64.8 µM,17.1 µM,> 100 µM,30.7 µM,51.9 µM,18.4 µM,20.8 µM,30.2 µM,17.4 µM,23 µM,3.86 µM,58.7 µM,–
CCOC(=O)CCC(NC(=O)c1ccc(Oc2nc3c(N)cc(C(F)(F)F)cc3nc2-c2ccccc2)cc1)C(=O)OCC (stereo unspecified),> 100 µM,> 55.8 µM,45.4 µM,> 31.6 µM,> 100 µM,> 100 µM,> 80.9 µM,> 79.4 µM,> 30.7 µM,> 71.2 µM,> 100 µM,> 96.1 µM,> 100 µM,> 25.2 µM,47.7 µM,> 100 µM,> 100 µM,> 100 µM,> 100 µM,> 94.3 µM
COC1=C2CC(C)CC(OC)C(OC(=O)CN)[C@H](C)/C=C(\C)C(OC(N)=O)C(OC)/C=C\C=C(/C)C(=O)NC(=CC1=O)C2=O (stereo partly specified),1.25 µM,24.7 µM,1.15 µM,1.02 µM,2.01 µM,> 100 µM,20.7 µM,13.3 µM,14.7 µM,16.4 µM,0.559 µM,1.6 µM,1.57 µM,3.45 µM,8.21 µM,12.6 µM,4.29 µM,3.34 µM,1.27 µM,24.7 µM
CCC/C(Cl)=N/OC(NC(=O)OCC)(C(F)(F)F)C(F)(F)F,37.5 µM,> 100 µM,> 100 µM,37.7 µM,43.5 µM,62.6 µM,> 100 µM,> 100 µM,> 100 µM,36.6 µM,36.9 µM,31.6 µM,71.4 µM,34.6 µM,33.6 µM,> 100 µM,> 100 µM,35.9 µM,36.2 µM,> 100 µM
COc1ccc(N=Nc2ccc3oc(=O)c(C(=O)Nc4ccccc4C)cc3c2)cc1,> 10 µM,> 10 µM,> 10 µM,> 10 µM,> 10 µM,–,–,> 10 µM,> 10 µM,> 10 µM,> 10 µM,> 10 µM,> 10 µM,–,> 10 µM,> 10 µM,> 10 µM,> 10 µM,> 10 µM,> 10 µM
OCCCCn1cc(Cn2ncc3c(NCc4ccccc4)ncnc32)nn1,> 100 µM,> 100 µM,> 100 µM,> 100 µM,> 100 µM,> 100 µM,> 100 µM,> 100 µM,> 100 µM,> 100 µM,> 100 µM,> 100 µM,> 100 µM,> 100 µM,> 100 µM,> 100 µM,> 100 µM,> 100 µM,> 100 µM,> 100 µM
